# Test results published in US8815950B2, “Pharmaceutical compositions and method of using levodopa and carbidopa” (Janssen Biotech, Inc., priority 2003, dated 2014).
# Read-outs that look alike come from different tables or passages of the source.
# Legend:
# Type in all cases: physicochemical
# [1] = Stability of levodopa and carbidopa solutions, HPLC potency test
# Method: A formulation of: […] This powder mixture was dissolved in water at a concentration of 5.5 mg/ml of levodopa. This solution was filter through a 0.22 micrometer filter (with PVDF membrane) and then stored at temperatures of 4 degrees C., 25 degrees C. and 40 degrees C. […] This powder mixture was dissolved in water at concentration of 1.0 mg/ml of levodopa. This solution was filtered through a 0.22 micrometer filter (with PVDF membrane) and then stored at temperatures of 4 degrees C., 25 degrees C. and 40 degrees C. The sample solutions were submitted for HPLC potency test at each time point. The stability was monitored in percentage change compared to the initial potency.
# [2] = Levodopa solubility in 3.5 mg/ml ascorbic acid solution; conditions: aqueous buffer, thermodynamic from solid, stirring 24 hour at RT, read-out: concentration of levodopa in the filtration (maximum solubility)
# Method: Levedopa solubility in ascorbic acid solution an ascorbic acid concentration of 3.5 mg/ml was tested. A sample of 3.5 mg/ml ascorbic acid was made by adding 70.0 mg of ascorbic acid into 20 ml of water. Then, 80.0 mg of levodopa powder was dissolved into the 3.5 mg/ml ascorbic sample by stirring for 24 hour at RT. The projected levodopa concentration was 4 mg/ml. The sample was filtered through a 0.22μ PVDF filter to remove the insoluble levodopa. The filtration was assayed by HPLC at 10× dilution with water. The HPLC data indicated the concentration of levodopa in the filtration was 2.0 mg/ml.
# [3] = Solubility of levodopa in citrate buffer at varying pH and buffer strength
# Method: Solutions were made using Citric acid and tribasic Sodium Citrate dihydrate Initially a 1.0 M citric acid solution was made by weighing out 19.2 g Citric acid (FW 192.1) into a 100 mL volumetric flask and diluting with HPLC grade water. This was repeated with the Sodium Citrate (FW 294.1), by weighting out 29.4 g of sodium citrate in into a 100 mL volumetric flask and diluting to 100 mL with water. A series of 8 of 20 mL scintillation vials were then labeled and prepared as follows:
# These pH adjustments were made with the sodium citrate (also 1.0 M) to keep a consistent molarity with the citrate. From these mother vials, 2 subsequent sets of solution were made for the molar concentrations 0.45 and 0.15 M. 0.45 M is for a 3:1 buffer and 0.15 M is for a 1:1 buffer. These solutions were also pH adjusted with molar equivalent solution to keep the pH value consistent throughout each dilution and after adding the levodopa.
# [4] = Levodopa/Ascorbic/Carbidopa/at 1/3/0.2 at 4 C., 1 Day
# [5] = Levodopa/Ascorbic/Carbidopa/at 1/3/0.2 at 4 C., 2 Day
# [6] = Levodopa/Ascorbic/Carbidopa/at 1/3/0.2 at 4 C., 7 Day
# [7] = Levodopa/Ascorbic/Carbidopa/at 1/3/0.2 at 4 C., Initial
# [8] = Levodopa/Ascorbic/Carbidopa/at 1/3/0.2 at 25 C., 1 Day
# [9] = Levodopa/Ascorbic/Carbidopa/at 1/3/0.2 at 25 C., 2 Day
# [10] = Levodopa/Ascorbic/Carbidopa/at 1/3/0.2 at 25 C., 7 Day
# [11] = Levodopa/Ascorbic/Carbidopa/at 1/3/0.2 at 25 C., Initial
# [12] = Levodopa/Ascorbic/Carbidopa/at 1/3/0.2 at 40 C., 1 Day
# [13] = Levodopa/Ascorbic/Carbidopa/at 1/3/0.2 at 40 C., 2 Day
# [14] = Levodopa/Ascorbic/Carbidopa/at 1/3/0.2 at 40 C., 7 Day
# [15] = Levodopa/Ascorbic/Carbidopa/at 1/3/0.2 at 40 C., Initial
# [16] = Levodopa/Citric/Carbidopa/Sucrose at 1/3/0.2/1 at 4 C., 1 Day
# [17] = Levodopa/Citric/Carbidopa/Sucrose at 1/3/0.2/1 at 4 C., 2 Day
# [18] = Levodopa/Citric/Carbidopa/Sucrose at 1/3/0.2/1 at 4 C., 3 Day
# [19] = Levodopa/Citric/Carbidopa/Sucrose at 1/3/0.2/1 at 4 C., 7 Day
# [20] = Levodopa/Citric/Carbidopa/Sucrose at 1/3/0.2/1 at 4 C., Initial
# [21] = Levodopa/Citric/Carbidopa/Sucrose at 1/3/0.2/1 at 25 C., 1 Day
# [22] = Levodopa/Citric/Carbidopa/Sucrose at 1/3/0.2/1 at 25 C., 2 Day
# [23] = Levodopa/Citric/Carbidopa/Sucrose at 1/3/0.2/1 at 25 C., 3 Day
# [24] = Levodopa/Citric/Carbidopa/Sucrose at 1/3/0.2/1 at 25 C., 7 Day
# [25] = Levodopa/Citric/Carbidopa/Sucrose at 1/3/0.2/1 at 25 C., Initial
# [26] = Levodopa/Citric/Carbidopa/Sucrose at 1/3/0.2/1 at 40 C., 1 Day
# [27] = Levodopa/Citric/Carbidopa/Sucrose at 1/3/0.2/1 at 40 C., 2 Day
# [28] = Levodopa/Citric/Carbidopa/Sucrose at 1/3/0.2/1 at 40 C., 3 Day
# [29] = Levodopa/Citric/Carbidopa/Sucrose at 1/3/0.2/1 at 40 C., 7 Day
# [30] = Levodopa/Citric/Carbidopa/Sucrose at 1/3/0.2/1 at 40 C., Initial
smiles,measurement,setting,value
N[C@@H](Cc1ccc(O)c(O)c1)C(=O)O [Levodopa],"HPLC potency, percentage compared to the initial potency",[1]; [4],100%
same,"HPLC potency, percentage compared to the initial potency",[1]; [5],100%
same,"HPLC potency, percentage compared to the initial potency",[1]; [6],102%
same,"HPLC potency, percentage compared to the initial potency",[1]; [7],100%
same,"HPLC potency, percentage compared to the initial potency",[1]; [8],100%
same,"HPLC potency, percentage compared to the initial potency",[1]; [9],100%
same,"HPLC potency, percentage compared to the initial potency",[1]; [10],102%
same,"HPLC potency, percentage compared to the initial potency",[1]; [11],100%
same,"HPLC potency, percentage compared to the initial potency",[1]; [12],100%
same,"HPLC potency, percentage compared to the initial potency",[1]; [13],101%
same,"HPLC potency, percentage compared to the initial potency",[1]; [14],104%
same,"HPLC potency, percentage compared to the initial potency",[1]; [15],100%
same,"HPLC potency, percentage compared to the initial potency",[1]; [16],100%
same,"HPLC potency, percentage compared to the initial potency",[1]; [17],100%
same,"HPLC potency, percentage compared to the initial potency",[1]; [18],100%
same,"HPLC potency, percentage compared to the initial potency",[1]; [19],100%
same,"HPLC potency, percentage compared to the initial potency",[1]; [20],100%
same,"HPLC potency, percentage compared to the initial potency",[1]; [21],100%
same,"HPLC potency, percentage compared to the initial potency",[1]; [22],100%
same,"HPLC potency, percentage compared to the initial potency",[1]; [23],100%
same,"HPLC potency, percentage compared to the initial potency",[1]; [24],100%
same,"HPLC potency, percentage compared to the initial potency",[1]; [25],100%
same,"HPLC potency, percentage compared to the initial potency",[1]; [26],100%
same,"HPLC potency, percentage compared to the initial potency",[1]; [27],100%
same,"HPLC potency, percentage compared to the initial potency",[1]; [28],100%
same,"HPLC potency, percentage compared to the initial potency",[1]; [29],100%
same,"HPLC potency, percentage compared to the initial potency",[1]; [30],100%
same,solubility at 24 h,[2],2000 µg/mL
same,solubility,"[3]; pH 1.5, aqueous buffer, Citrate buffer 0.15M pH1.5, read-out: Conc (levodopa solubility)",7200 µg/mL
same,solubility,"[3]; pH 1.5, aqueous buffer, Citrate buffer 0.45M pH1.5, read-out: Conc (levodopa solubility)",11400 µg/mL
same,solubility,"[3]; pH 1.5, aqueous buffer, Citrate buffer 1.0M pH 1.5, read-out: Conc (levodopa solubility)",17900 µg/mL
same,solubility,"[3]; pH 2.5, aqueous buffer, Citrate buffer 0.15M pH2.5, read-out: Conc (levodopa solubility)",4870 µg/mL
same,solubility,"[3]; pH 2.5, aqueous buffer, Citrate buffer 0.45M pH2.5, read-out: Conc (levodopa solubility)",5820 µg/mL
same,solubility,"[3]; pH 2.5, aqueous buffer, Citrate buffer 1.0M pH 2.5, read-out: Conc (levodopa solubility)",7430 µg/mL
same,solubility,"[3]; pH 3, aqueous buffer, Citrate buffer 0.15M pH3.0, read-out: Conc (levodopa solubility)",4210 µg/mL
same,solubility,"[3]; pH 3, aqueous buffer, Citrate buffer 0.45M pH3.0, read-out: Conc (levodopa solubility)",4850 µg/mL
same,solubility,"[3]; pH 3, aqueous buffer, Citrate buffer 1.0M pH 3.0, read-out: Conc (levodopa solubility)",5930 µg/mL
same,solubility,"[3]; pH 3.5, aqueous buffer, Citrate buffer 0.15M pH3.5, read-out: Conc (levodopa solubility)",3900 µg/mL
same,solubility,"[3]; pH 3.5, aqueous buffer, Citrate buffer 0.45M pH3.5, read-out: Conc (levodopa solubility)",4510 µg/mL
same,solubility,"[3]; pH 3.5, aqueous buffer, Citrate buffer 1.0M pH 3.5, read-out: Conc (levodopa solubility)",5230 µg/mL
same,solubility,"[3]; pH 4, aqueous buffer, Citrate buffer 0.15M pH4.0, read-out: Conc (levodopa solubility)",3790 µg/mL
same,solubility,"[3]; pH 4, aqueous buffer, Citrate buffer 0.45M pH4.0, read-out: Conc (levodopa solubility)",4250 µg/mL
same,solubility,"[3]; pH 4, aqueous buffer, Citrate buffer 1.0M pH 4.0, read-out: Conc (levodopa solubility)",4650 µg/mL
same,solubility,"[3]; pH 4.5, aqueous buffer, Citrate buffer 0.15M pH4.5, read-out: Conc (levodopa solubility)",3880 µg/mL
same,solubility,"[3]; pH 4.5, aqueous buffer, Citrate buffer 0.45M pH4.5, read-out: Conc (levodopa solubility)",4250 µg/mL
same,solubility,"[3]; pH 4.5, aqueous buffer, Citrate buffer 1.0M pH 4.5, read-out: Conc (levodopa solubility)",4440 µg/mL
same,solubility,"[3]; pH 5, aqueous buffer, Citrate buffer 0.15M pH5.0, read-out: Conc (levodopa solubility)",3880 µg/mL
same,solubility,"[3]; pH 5, aqueous buffer, Citrate buffer 0.45M pH5.0, read-out: Conc (levodopa solubility)",4150 µg/mL
same,solubility,"[3]; pH 5, aqueous buffer, Citrate buffer 1.0M pH 5.0, read-out: Conc (levodopa solubility)",4170 µg/mL
same,solubility,"[3]; pH 6, aqueous buffer, Citrate buffer 0.15M pH6.0, read-out: Conc (levodopa solubility)",3950 µg/mL
same,solubility,"[3]; pH 6, aqueous buffer, Citrate buffer 0.45M pH6.0, read-out: Conc (levodopa solubility)",4160 µg/mL
same,solubility,"[3]; pH 6, aqueous buffer, Citrate buffer 1.0M pH 6.0, read-out: Conc (levodopa solubility)",3870 µg/mL
C[C@@](Cc1ccc(O)c(O)c1)(NN)C(=O)O [Carbidopa],"HPLC potency, percentage compared to the initial potency",[1]; [4],101%
same,"HPLC potency, percentage compared to the initial potency",[1]; [5],101%
same,"HPLC potency, percentage compared to the initial potency",[1]; [6],101%
same,"HPLC potency, percentage compared to the initial potency",[1]; [7],100%
same,"HPLC potency, percentage compared to the initial potency",[1]; [8],99%
same,"HPLC potency, percentage compared to the initial potency",[1]; [9],97%
same,"HPLC potency, percentage compared to the initial potency",[1]; [10],87%
same,"HPLC potency, percentage compared to the initial potency",[1]; [11],100%
same,"HPLC potency, percentage compared to the initial potency",[1]; [12],94%
same,"HPLC potency, percentage compared to the initial potency",[1]; [13],88%
same,"HPLC potency, percentage compared to the initial potency",[1]; [14],88%
same,"HPLC potency, percentage compared to the initial potency",[1]; [15],100%
same,"HPLC potency, percentage compared to the initial potency",[1]; [16],100%
same,"HPLC potency, percentage compared to the initial potency",[1]; [17],100%
same,"HPLC potency, percentage compared to the initial potency",[1]; [18],101%
same,"HPLC potency, percentage compared to the initial potency",[1]; [19],100%
same,"HPLC potency, percentage compared to the initial potency",[1]; [20],100%
same,"HPLC potency, percentage compared to the initial potency",[1]; [21],98%
same,"HPLC potency, percentage compared to the initial potency",[1]; [22],96%
same,"HPLC potency, percentage compared to the initial potency",[1]; [23],96%
same,"HPLC potency, percentage compared to the initial potency",[1]; [24],91%
same,"HPLC potency, percentage compared to the initial potency",[1]; [25],100%
same,"HPLC potency, percentage compared to the initial potency",[1]; [26],91%
same,"HPLC potency, percentage compared to the initial potency",[1]; [27],84%
same,"HPLC potency, percentage compared to the initial potency",[1]; [28],81%
same,"HPLC potency, percentage compared to the initial potency",[1]; [29],75%
same,"HPLC potency, percentage compared to the initial potency",[1]; [30],100%
